In patent publication US9862684B2, “Modulation of K2P channels” (The Regents of the University of California, priority 2013, dated 2018):
pEC50: −log10 of the molar value. Where two headings read alike, the source gives them in different places.

How the values were obtained:
K2P2.1 (TREK-1) [1] = target: T1, K2P2.1 (TREK-1) (Mus musculus, UniProt P97438); assay: Two-electrode voltage clamp of Xenopus oocytes expressing K2P2.1 (TREK-1); format: cell-based, Murine; conditions: two-electrode voltage clamp, Xenopus oocytes
T1 construct: expressed in transfected cells; host or cells: Xenopus oocytes (cRNA injection, pGEMHE/pMO)
T1 sequence (P97438 1-411 isoform P97438-2): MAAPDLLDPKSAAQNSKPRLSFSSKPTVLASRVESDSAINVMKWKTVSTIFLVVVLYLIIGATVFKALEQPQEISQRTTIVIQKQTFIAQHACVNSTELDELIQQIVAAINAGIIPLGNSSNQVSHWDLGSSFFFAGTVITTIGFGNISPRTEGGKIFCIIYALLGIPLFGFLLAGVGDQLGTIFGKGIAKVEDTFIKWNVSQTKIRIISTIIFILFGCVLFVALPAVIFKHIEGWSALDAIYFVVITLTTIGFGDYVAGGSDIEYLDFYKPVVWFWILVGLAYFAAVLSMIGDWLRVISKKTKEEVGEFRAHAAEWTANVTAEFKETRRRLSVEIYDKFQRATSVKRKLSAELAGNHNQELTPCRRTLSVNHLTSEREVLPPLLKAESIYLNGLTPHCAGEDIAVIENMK
Experimental: (§1) Two-electrode voltage clamp recordings were performed from defolliculated stage V-VI Xenopus oocytes 24-48 hours after injection with 0.015-6.0 ng cRNA, using microelectrodes (0.3-3.0 MΩ) filled with 3M KCl. […] Recording solutions (mM): 2K (96 NaCl, 2 KCl, 1.8 CaCl2, 2 MgCl2), 90K (90 KCl, 8 NaCl, 1.8 CaCl2, 2 MgCl2), were buffered 5 mM HEPES pH 7.4. For K2P recordings, currents we elicited by a 1 second long ramp from −150 to +50 mV from a holding potential of −80 mV (2K), or −100 to +50 mV from a holding potential of 0 mV (90K). For KCNQ2 recordings, currents were elicited by a step protocol from −120 to 60 mV, in 20 mV increments, from a holding potential of −80 mV. […] Currents were elicited by a 1 second long ramp from −150 to +50 mV from a holding potential of −80 mV.

TREK-1 [2] = target: T2, TREK-1 (Mus musculus, UniProt P97438); assay: Antagonist compound examples, modulation of TREK-1 (current inhibition), Table 5; format: cell-based, Murine
T2 construct: expressed in transfected cells
T2 sequence (P97438 1-411 isoform P97438-2): T1 sequence (P97438 1-411 isoform P97438-2)
Experimental: (§2) Two-electrode voltage clamp recordings were performed from defolliculated stage V-VI Xenopus oocytes 24-48 hours after injection with 0.015-6.0 ng cRNA, using microelectrodes (0.3-3.0 MΩ) filled with 3M KCl. Data was acquired using the GeneClamp 500B (MDS Analytical Technologies) amplifier controlled by the pClamp software (Molecular Devices), and digitized at 1 kHz using Digidata 1332A (MDS Analytical Technologies). Recording solutions (mM): 2K (96 NaCl, 2 KCl, 1.8 CaCl2, 2 MgCl2), 90K (90 KCl, 8 NaCl, 1.8 CaCl2, 2 MgCl2), were buffered 5 mM HEPES pH 7.4. For K2P recordings, currents we elicited by a 1 second long ramp from −150 to +50 mV from a holding potential of −80 mV (2K), or −100 to +50 mV from a holding potential of 0 mV (90K). For KCNQ2 recordings, currents were elicited by a step protocol from −120 to 60 mV, in 20 mV increments, from a holding potential of −80 mV. Patch-clamp recordings from HEK-293T cells were performed using microelectrodes (2-3 MΩ) filled with 1M KCl. Data was acquired using the Axopatch 200B amplifier controlled by pClamp software, and digitized at 1 kHz using Digidata 1332A. Recording solutions (mM): intracellular (145 KCl, 5 EGTA, 3 MgCl2,) extracellular (150 NaCl, 5 KCl, 3 MgCl2, 1 CaCl2) were buffered with 5 mM HEPES pH 7.2 and 7.4, respectively. Currents were elicited by a 1 second long ramp from −150 to +50 mV from a holding potential of −80 mV. Data were fitted with a modified Hill's equation: I=Imin+(Imax−Imin)/(1+10^((Log EC50−Log [C])*H)), where Imax and Imin are maximal and minimal current values, respectively, EC50 is a half-maximal effective concentration of the compound, and H is the Hill coefficient.

K2P10.1 (TREK-2) = target: T3, K2P10.1 (TREK-2) (Mus musculus, UniProt Q8BUW1); assay: Two-electrode voltage clamp, Xenopus oocytes expressing K2P10.1 (TREK-2); format: cell-based, Murine
T3 construct: expressed in transfected cells; host or cells: Xenopus oocytes
T3 sequence (Q8BUW1 1-535): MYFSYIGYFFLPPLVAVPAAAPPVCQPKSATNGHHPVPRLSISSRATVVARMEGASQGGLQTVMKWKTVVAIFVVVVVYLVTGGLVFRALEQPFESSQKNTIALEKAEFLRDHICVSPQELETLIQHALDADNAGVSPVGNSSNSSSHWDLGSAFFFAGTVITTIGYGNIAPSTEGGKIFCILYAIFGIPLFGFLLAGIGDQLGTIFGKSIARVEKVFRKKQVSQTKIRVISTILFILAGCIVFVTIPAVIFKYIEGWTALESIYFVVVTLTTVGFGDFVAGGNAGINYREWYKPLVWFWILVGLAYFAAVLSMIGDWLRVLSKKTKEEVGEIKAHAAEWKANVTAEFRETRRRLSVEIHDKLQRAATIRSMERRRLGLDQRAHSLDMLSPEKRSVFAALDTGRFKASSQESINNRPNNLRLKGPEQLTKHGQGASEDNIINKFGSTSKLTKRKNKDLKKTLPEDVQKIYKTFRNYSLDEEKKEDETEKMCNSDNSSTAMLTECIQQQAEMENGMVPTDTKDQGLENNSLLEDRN
Experimental: (§3) FIG. 7 ML67-33 is a selective activator of heat- and mechanosensitive K2P channels. a-f, Exemplar I-V curves showing the effect of ML67-33 on a, K2P10.1 (TREK-2), b, K2P4.1 (TRAAK), c, K2P3.1 (TASK-1), d, K2P9.1 (TASK-3), e, K2P5.1 (TASK-2), and f, K2P18.1 (TRESK) measured in Xenopus oocytes in 2 mM [K^+]o pH 7.4. Currents were elicited by a voltage ramp from −150 to 50 mV, from a holding potential of −80 mV. g, Quantification of the effect of ML67-33 on the indicated channels. Data (mean±s.e., n≧6, N≧2) was normalized to basal channel activity and fitted to the Hill equation. […] Error bars indicate s.e., n≧6, N≧2.
(§4) Murine K2P channels were cloned into pGEMHE/pMO {Bagriantsev, 2011}, IRES-GFP (Invitrogen), or pYES2-MET25 (high copy 2μ, URA3) {Minor, 1999} for expression in oocytes, HEK-293T cells, and yeast, respectively, using standard molecular biology procedures, and verified by DNA sequencing.
as §2
(§5) There are six K2P subgroups {Noel, 2011} (FIG. 11). […]

K2P3.1 (TASK-1) = target: T4, K2P3.1 (TASK-1) (Mus musculus, UniProt O35111); assay: Two-electrode voltage clamp, Xenopus oocytes expressing K2P3.1 (TASK-1); format: cell-based, Murine
T4 construct: expressed in transfected cells; host or cells: Xenopus oocytes
T4 sequence (O35111 whole entry): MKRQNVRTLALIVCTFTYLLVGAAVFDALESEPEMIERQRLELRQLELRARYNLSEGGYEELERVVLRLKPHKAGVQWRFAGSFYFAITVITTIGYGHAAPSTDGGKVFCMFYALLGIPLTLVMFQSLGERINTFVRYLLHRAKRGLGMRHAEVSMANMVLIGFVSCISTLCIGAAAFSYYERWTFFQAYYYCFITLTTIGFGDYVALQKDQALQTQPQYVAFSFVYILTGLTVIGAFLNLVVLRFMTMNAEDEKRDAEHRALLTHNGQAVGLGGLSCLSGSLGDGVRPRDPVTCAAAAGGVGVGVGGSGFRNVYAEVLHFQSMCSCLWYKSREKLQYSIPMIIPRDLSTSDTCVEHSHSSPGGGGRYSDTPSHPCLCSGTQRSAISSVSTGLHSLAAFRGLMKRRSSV
Experimental: as §3, §4, §2, §5

Kv7.2 (KCNQ2) = target: T5, Kv7.2 (KCNQ2) (Homo sapiens, UniProt O43526); assay: Two-electrode voltage clamp, Xenopus oocytes expressing Kv7.2 (KCNQ2); format: cell-based
T5 construct: expressed in transfected cells; host or cells: Xenopus oocytes
Experimental: FIG. 12 Exemplar I-V curves showing the effect of 100 μM ML67-33 Kv7.2 (KCNQ2) measured by two-electrode voltage clamp in Xenopus oocytes in 2 mM [K^+]o pH 7.4. Currents were elicited by a step protocol from −120 to 60 mV, in 20 mV increments, from a holding potential of −80 mV.
as §2

TREK-1 [3] = target: T2, TREK-1; assay: Modulation of TREK-1 by select compounds (agonist activity), Table 3; format: cell-based, Murine; conditions: agonist activity on TREK-1
Experimental: as §1

Solubility (remarks) = format: physicochemical
K2P2.1 (TREK-1) [4] = target: T6, K2P2.1 (TREK-1) (Homo sapiens, UniProt O95069); conditions: cited from earlier work
T6 sequence (O95069 1-426): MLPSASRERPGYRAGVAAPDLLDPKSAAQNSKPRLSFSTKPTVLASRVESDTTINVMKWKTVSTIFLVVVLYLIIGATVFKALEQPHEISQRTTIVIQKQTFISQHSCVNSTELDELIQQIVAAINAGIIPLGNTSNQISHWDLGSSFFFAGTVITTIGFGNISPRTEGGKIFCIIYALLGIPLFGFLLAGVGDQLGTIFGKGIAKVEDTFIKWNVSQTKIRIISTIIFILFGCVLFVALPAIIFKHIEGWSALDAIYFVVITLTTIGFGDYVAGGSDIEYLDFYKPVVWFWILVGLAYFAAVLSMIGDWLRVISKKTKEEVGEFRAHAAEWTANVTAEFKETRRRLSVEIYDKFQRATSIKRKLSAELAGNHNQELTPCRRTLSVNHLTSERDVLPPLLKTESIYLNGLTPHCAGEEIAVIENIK

[5] = 25 μM, 0 mV, read-out: inhibition at 25 μM at 0 mV

For Cc1cccc(-n2ncc3c(NCCc4ccccc4)ncnc32)c1 [ML45, 1-(3-methylpyhenyl)-N-(2-phenylethyl)-1H-pyrazolo[3,4-d]pyrimidin-4-amine], the “effect on K2P2.1 (TREK-1) function / activity (in words)” value (K2P2.1 (TREK-1) [1]) was “inhibitors” and the inhibition at 25 µM (TREK-1 [2]; read-out: current inhibition at 25 μM) was about 30%.

For c1ccc(CCNc2ncnc3c2cnn3-c2ccccc2)cc1 [ML45-1, 1-phenyl-N-(2-phenylethyl)-1H-pyrazolo[3,4-d]pyrimidin-4-amine], the inhibition at 25 µM (TREK-1 [2]; [5]) was 22.5%.

For Cc1ccc(-n2ncc3c(NCCc4ccccc4)ncnc32)cc1 [ML45-2, 1-(4-methylphenyl)-N-(2-phenylethyl)-1H-pyrazolo[3,4-d]pyrimidin-4-amine], the inhibition at 25 µM (TREK-1 [2]; [5]) was 25.2%.

In the case of Cc1ccc(-n2ncc3c(NCCc4ccccc4)ncnc32)cc1C [ML45-3, 1-(3,4-dimethylphenyl)-N-(2-phenylethyl)-1H-pyrazolo[3,4-d]pyrimidin-4-amine], the inhibition at 25 µM (TREK-1 [2]; [5]) was 31.9%.

With Clc1ccc(-n2ncc3c(NCCc4ccccc4)ncnc32)cc1 [ML45-4, 1-(4-chlorophenyl)-N-(2-phenylethyl)-1H-pyrazolo[3,4-d]pyrimidin-4-amine] the inhibition at 25 µM (TREK-1 [2]; [5]) was 20.7%.

In the case of Cc1cccc(-n2ncc3c(NCCc4ccc(S(N)(=O)=O)cc4)ncnc32)c1 [ML45-5, 4-(2-{[1-(3-methylphenyl)-1H-pyrazolo[3,4-d]pyrimidin-4-yl]amino}ethyl)benzene-1-sulfonamide], the inhibition at 25 µM (TREK-1 [2]; [5]) was 2.7%.

In the case of O=C(O)CCn1c2ccc(Cl)cc2c2cc(Cl)ccc21 [ML67, 3-(3,6-dichlorocarbazol-9-yl)propanoic acid], the “effect on K2P2.1 (TREK-1) function / activity (in words)” value (K2P2.1 (TREK-1) [1]) was “activated the channel”, the pEC50 (K2P10.1 (TREK-2); Xenopus oocytes, 2 mM [K+]o pH 7.4) was under 3.60 and the “Emax (fold) at 500 μM” value (K2P10.1 (TREK-2); at 500 μM) was 10.1 ± 1.1 at 500 μM fold. For the same compound, the “functional effect / activation (in words)” value (K2P3.1 (TASK-1); ML67-33 applied at 100 μM, ML67 concentration not stated) was “not”, the “Emax (fold) at 500 μM” value (K2P3.1 (TASK-1); at 500 μM) was 1.2 ± 0.0 at 500 μM fold and the “effect on Kv7.2 (KCNQ2) (in words)” value (Kv7.2 (KCNQ2); ML67-33 at 100 μM, ML67 concentration not stated) was “no effect”. For the same compound, the “Emax (fold) at 500 μM” value (Kv7.2 (KCNQ2); at 500 μM) was 1.8 ± 0.0 at 500 μM fold and the pEC50 (TREK-1 [3]) was 3.67.

With O=C(O)/C=C/n1c2ccc(Cl)cc2c2cc(Cl)ccc21 [ML67-16, (E)-3-(3,6-dichlorocarbazol-9-yl)prop-2-enoic acid] the “solubility (in words)” value (Solubility (remarks)) was “insoluble”.

With O=C(CCn1c2ccc(Cl)cc2c2cc(Cl)ccc21)NO [ML67-19, 3-(3,6-dichlorocarbazol-9-yl)-N-hydroxy-propanamide] the “solubility (in words)” value (Solubility (remarks)) was “insoluble”.

In the case of CCCCC/C=C\C/C=C\C/C=C\C/C=C\CCCC(=O)O [arachidonic acid], the “activation of K2P2.1 (TREK-1)” value (K2P2.1 (TREK-1) [4]; at 10-20 μM) is listed as 3-12 fold.

In the case of ClC(Cl)Cl [chloroform], the “activation of K2P2.1 (TREK-1)” value (K2P2.1 (TREK-1) [4]; at 1.6 mM) is listed as 5.5 fold.
